The record followed here is a melting point compilation (Tetko et al.; mined from patent text by program, amines drawn as free bases though some values may be those of a salt).

The melting point is the temperature of the solid-liquid transition. `O=C(c1cc(Br)c(O)c(Br)c1)c1c(CCc2ccccc2)oc2ccccc12` gave a melting point of 153 to 154 °C.
The figure for `COc1ccc(-c2nn(Cc3ccc(OCc4nc(-c5ccccc5)oc4C)cc3)cc2CCC(=O)O)cc1` is 137 to 138 °C; for `CC(C)(C)COc1ccc([N+](=O)[O-])cc1C#N` it is 90 to 91 °C; for `O=C(NC(Cc1ccc(OCc2ccccc2)cc1)C(=O)O)c1cc2ccc(-c3ccc(Cl)cc3)cc2[nH]1` (stereo unspecified) it is 202 to 204 °C.
For `COc1ccc2cc3ncc(C#N)c(Cl)c3cc2c1`, the melting point lay within 242 to 243 °C.
Turning to `CC(C)(CNC(=O)Cc1cnc[nH]1)c1ccc(C(=O)Nc2cn3cc(C(F)(F)F)ccc3n2)cc1`, the melting point was in the range of 261 to 263 °C.
Consider `O=C1CC(NC(=O)c2ccc3nc[nH]c3c2)CCCN1` (stereo unspecified), for which the melting point was 297 to 299 °C.
The figure for `COCCNc1nc(N)nc(-c2ccccc2)c1-c1ccc(=O)n(C(C)C)n1` is 168 to 170 °C; for `O=C1CCC(N2Cc3c(OCc4ccc(CN5CCN(C(=O)C6CC6)CC5)cc4)cccc3C2=O)C(=O)N1` (stereo unspecified) it is 233 to 235 °C; for `CCOC(=O)CCCn1cc(C(=O)O)c2nc3c(C)cccc3cc2c1=O` it is 186 to 188 °C.
Next, `COc1cccc(NC(=O)[C@H](CC(=O)OC(C)(C)C)NC(=O)OCc2ccccc2)c1`: 68 to 69 °C; `CCCc1nc2c(N)nc3cc(OCCOCCOc4ccc5c(c4)nc(N)c4nc(CCC)sc45)ccc3c2s1`: 186 to 189 °C.
Next, `CNC(=O)c1sc(N2CCN(Cc3ccc(F)cc3)C2=O)nc1C`: 225 to 227 °C.
For `C[Si](C)(C)C#Cc1ccc(Oc2ccc(C(=O)C(=O)c3cccc(C(=O)C(=O)c4ccc(Oc5ccc(C#C[Si](C)(C)C)cc5)cc4)c3)cc2)cc1`, the melting point lay within 110 to 111 °C.
The figure for `O=C1CC2CSc3sccc3C2=NN1c1ccc(Cl)cc1` (stereo unspecified) is 134 to 135 °C.
The molecule `C=CCN1CCC(Nc2ccc(Cl)cc2)CC1` yielded a melting point of 90 °C.
Turning to `CC(C)NCC(O)COc1ccc2cn[nH]c(=O)c2c1` (stereo unspecified), the melting point lay within 232 to 235 °C.
The molecule `Cc1c(C)c2c(c(C)c1NC(=O)CC(C)(C)C)C(c1ccc(C(C)C)cc1)C1(CCCC1)O2` (stereo unspecified) had a melting point of 209 to 210 °C.
Next, `CCOC(=O)c1cn2c(cc(OC(C)C)c3ccc(Cl)cc32)n1`: 187 to 189 °C.
`CNCC1Cc2cc(C(F)(F)F)cc(-c3cccc(F)c3F)c2O1` (stereo unspecified) displayed a melting point of 123 to 125 °C.
`COC1=CC=CC(OCCCN2CCN(c3n[nH]c4ccccc34)CC2)(C(C)=O)C1` (stereo unspecified): the melting point was 155 to 157 °C.
Next, `CS(=O)(=O)c1ccc(N2CCC3(CC2)Nc2cc(Cl)ccc2C(=O)O3)cc1`: 193 to 194 °C.
The figure for `CCOC(=O)c1ccc(N=C(Nc2ccc(C(=O)OCC)cc2)c2ccc(C)cc2)cc1` is 246 to 260 °C; for `O=C1CC(c2ccccc2O)=Nc2ccc(N3CCCC3)cc21` it is 304 to 306 °C; for `Cc1nc(NC(=O)NC(=O)c2c(Cl)cccc2Cl)cnc1-c1ccc(Br)cc1` it is 225 to 227 °C.
The figure for `CCOc1ccc(CC(=O)Cc2csc(-c3ccc(OC)c(OC)c3)n2)cc1OCC` is 141 to 142 °C; for `CC(C)c1cc(NS(=O)(=O)c2cc(C3(O)CCC(=O)N3C)ccc2Cl)cc(C(C)C)c1O` (stereo unspecified) it is 198 to 200 °C; for `COC(=O)CCC1(CCC(=O)OC)c2cc(N(c3ccccc3)c3cccc(C)c3)ccc2-c2ccc(N(c3ccccc3)c3cccc(C)c3)cc21` it is 159 to 160 °C.
For `Nc1cc(N2CCc3ccccc3C2)ccn1`, the melting point was 160 to 161 °C.
The figure for `Cc1cc2c(c(Cc3c[nH]cn3)c1)OC(C)(C)OC2` is 152 to 155 °C; for `COc1ccc(-c2cc3ccc(OC)cc3[nH]2)cc1` it is 228 to 230 °C.
The figure for `C(=C1CCC2(CC1)OCCO2)c1ccc(OCc2ccccc2)cc1` is 56 to 57 °C; for `OCC1OC(n2cnc3c(NC4CCCCC4)ncnc32)C(O)C1O` (stereo unspecified) it is 185 to 187 °C; for `COc1ccc2cc(-c3cncn3C)cc(C)c2n1` it is 160 to 162 °C.
The figure for `CCc1cc(Cl)cc(S(N)(=O)=O)c1N` is 134 to 135 °C.
Molecule `COc1ccc2c(c1)Oc1c(ccc(OC)c1C(OC)OC)C2(C)C` registered a melting point of 60 to 62 °C.
The figure for `O=C1C(c2ccccc2)=C(c2ccccc2)C(c2ccccc2)C1c1ccccc1` (stereo unspecified) is 162 to 163 °C; for `N#Cc1cccc(CN2C(=O)NC(c3ccccc3)(c3ccccc3)C2=O)c1` it is 160 to 164 °C; for `CSC(=NCCSCc1ccsn1)NC#N` it is 85 to 87 °C.
On to `COc1ccc(Nc2nccc(-c3cccs3)n2)cc1`, for which the melting point was in the range of 158 to 160 °C.
Next, `CCCCCCCCCCCCCCCCCC(=O)ON1C(C)(C)CC(OC(=O)c2ccccc2)CC1(C)C`: 85 to 89 °C; `COc1ccc(-n2nc(CCC(=O)N(C)O)cc2-c2ccc(F)cc2)cc1`: 151 to 154 °C; `O=C(NCc1ccc(F)cc1-n1cncn1)c1nc2n(c(=O)c1O)CCN2CCO`: 220 to 222 °C.
Molecule `COCC(O)COc1ccc2nc(S(N)(=O)=O)sc2c1` (stereo unspecified) had a melting point of 153 to 155 °C.
Consider `O=S(c1[nH]c(Br)c(Br)c1-c1ccc(Cl)cc1)C(F)(F)F` (stereo unspecified), for which the melting point was in the range of 166 to 168 °C.
As to `O=c1[nH]c(=O)n2c(c1-c1ccccc1)SCCC2`, the melting point was greater than 300 °C.
The figure for `Nc1ncnc2c1ncn2C1CC(C=Cc2ccccc2)C(CO)O1` (stereo unspecified) is 215 to 217 °C; for `CN(C)CCC(O)c1ccc(Cl)s1` (stereo unspecified) it is 76 to 77 °C; for `Cc1oc(-c2ccccc2)nc1CCCCCOC(C)(C)C(=O)O` it is 66 to 68 °C.
The figure for `CCCCCCCN(CCCCCSc1nc(-c2ccccc2)c(-c2ccccc2)[nH]1)c1ncnc2nc[nH]c12` is 58 to 60 °C; for `NC(=O)C1(c2ccccc2)OC(=O)c2ccccc21` (stereo unspecified) it is 225 to 227 °C; for `OC[C@@H]1CCc2ccc3ncccc3c2O1` it is 128 °C.
Regarding `CCc1c(Sc2cc(Cl)cc(Cl)c2)c(C(N)=O)nn1CCO`, the melting point was in the range of 214 to 216 °C.
Next, `Cc1cccc(C(C)C)c1NC(=O)NC1(c2cccs2)CCCCC1`: 230 to 232 °C.
As to `COc1ccc(C(=O)OC(=C2C(=O)N(C(N)=O)c3cc(Cl)c(F)cc32)c2cccs2)cc1`, the melting point was in the range of 220 to 221 °C.
Next, `Cc1ccc(NC(=O)NCc2ccc3c(c2)CN(C2CCC(=O)NC2=O)C3=O)cc1` (stereo unspecified): 267 to 269 °C; `O=C(O)c1ccc(N2C(=O)c3ccc(C(=O)O)cc3C2=O)cc1`: 377 to 379 °C.
The figure for `Cc1cc(-c2cc(C(F)(F)F)n3ncc(C(=O)Nc4cccc(S(=O)(=O)NC(C)(C)CO)c4)c3n2)ccc1C(F)(F)F` is 230 °C; for `CCCOc1ccc(-c2ccc3c(c2)C=C(C(=O)O)CCN3C=O)cc1` it is 215 to 217 °C; for `CCOC(=O)C[C@@H](C)NC(=O)N[C@H]1CCN(c2ccc(C#N)cc2)C1=O` it is 178 to 179 °C.
Take `O=C(c1cc(C(F)(F)F)nc2c(Cl)cc(Cl)cc12)c1cc(C(F)(F)F)nc2c(Cl)cc(Cl)cc12`: the melting point lay within 193 to 194 °C.
